Where a SMILES comes first, the peptide text is derived from it. The star is where a group is joined. Cbz = O=C(OCc1ccccc1)*
Biological target: T1, MTG (recombinant microbial transglutaminase, TGase) (Streptomyces sp., UniProt A0A6H0XHW2)
T1 construct: pro-mature gene (1,149 bp) without native signal peptide, codon-optimized, behind B. subtilis YncM signal peptide; secreted by Bacillus subtilis SCK6; purified mature enzyme, 38 kDa; no tag told
T1 sequence (A0A6H0XHW2 80-410): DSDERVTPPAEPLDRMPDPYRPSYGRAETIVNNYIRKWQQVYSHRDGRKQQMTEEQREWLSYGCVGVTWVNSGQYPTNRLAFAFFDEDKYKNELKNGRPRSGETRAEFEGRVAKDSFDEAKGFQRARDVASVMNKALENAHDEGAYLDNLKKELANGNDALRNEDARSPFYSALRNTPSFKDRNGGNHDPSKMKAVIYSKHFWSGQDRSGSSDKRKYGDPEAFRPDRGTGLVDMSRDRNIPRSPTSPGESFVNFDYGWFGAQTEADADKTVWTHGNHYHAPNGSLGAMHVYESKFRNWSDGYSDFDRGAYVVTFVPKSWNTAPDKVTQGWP
Test: hydroxamate assay ([…] nm), Lineweaver-Burk plot
Format: biochemical
Conditions: CBZ-Gln-Gly 5 to 30 mmol/l; pH 6.0; 37 °C; co-substrate hydroxylamine 100 mM, glutathione 10 mM; unit as printed (presumably μmol/ml)

NC(=O)CC[C@H](NC(=O)OCc1ccccc1)C(=O)NCC(=O)O [CBZ-Gln-Gly] (Cbz-Gln-Gly-OH)
Km: 16.93 μM/ml

Source: paper PMC9728238, “Heterologous Expression of Recombinant Transglutaminase in Bacillus subtilis SCK6 with Optimized Signal Peptide and Codon, and Its Impact on Gelatin Properties” (Journal of Microbiology and Biotechnology, 2020)
